{"source": "patent US5081114A", "about": "“Steroids” (Roussel Uclaf, priority 1989, dated 1992)", "molecular_target": "T1, aromatase (Homo sapiens, UniProt P11511)", "T1 construct": "This supernatant was subjected to an ultracentrifugation stage for 90 minutes at 105,000 g to obtain the microsomal deposit; from tissue; host or cells: human placenta, microsomes", "T1 sequence (P11511 1-503)": "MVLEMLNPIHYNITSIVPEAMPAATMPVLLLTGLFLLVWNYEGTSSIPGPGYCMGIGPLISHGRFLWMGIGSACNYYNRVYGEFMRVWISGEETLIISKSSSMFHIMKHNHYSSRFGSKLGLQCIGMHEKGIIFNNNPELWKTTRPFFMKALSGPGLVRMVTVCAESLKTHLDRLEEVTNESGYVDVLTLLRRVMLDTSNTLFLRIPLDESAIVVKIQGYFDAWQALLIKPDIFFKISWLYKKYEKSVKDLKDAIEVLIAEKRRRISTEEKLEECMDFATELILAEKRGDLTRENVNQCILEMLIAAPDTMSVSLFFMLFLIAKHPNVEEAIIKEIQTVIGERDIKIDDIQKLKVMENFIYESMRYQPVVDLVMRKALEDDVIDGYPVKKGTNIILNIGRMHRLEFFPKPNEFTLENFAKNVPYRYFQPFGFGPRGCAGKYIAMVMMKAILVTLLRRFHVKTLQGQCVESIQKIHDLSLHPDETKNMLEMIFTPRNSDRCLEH", "assay": "Inhibition of aromatase in placental microsomes (measurement of the CI50)", "type": "biochemical", "conditions": "human placental microsomes (25 microgramms of proteins per test); 60 nM Androstenedione with 1β-2β-(H^3)-Androstenedione; NADPH; pH=7.2; 37° C., 10 minutes; tritiated water release; read-out: CI50 (concentration of the inhibitor necessary to reduce the enzymatic activity by 50%)", "experimental": "Inhibition dependent on the concentration (measurement of the CI50 =concentration of the inhibitor necessary to reduce the enzymatic activity by 50%).\nHuman placentas were used which were washed one hour at most after delivery, then perfused with physiological serum (5 liters) via the umbilical vein, then deep-frozen at -40° C.\n1) Obtaining the placental microsomes\nThe placentas were thawed out at 4° C., then homogenized (1:3) in a 10 mM phosphate buffer, pH=7.0 containing 100 milimoles of potassium chloride (KCl), 10 millimoles of dithiothreitol (DTT), 10 millimoles of ethylenediaminetetra-acetic acid (EDTA), 40 millimoles of nicotinamide and 250 millimoles of sucrose. The homogenates were then subjected to different phases of centrifugation until a \"9000 g\" supernatant was obtained (corresponding to cytosol and to endosplasmic reticulum). […] The protein concentration of the microsomal suspension was determined by the BRADFORD method [BRADFORD, Anal. Biochem., Voml. […]\nThen the enzymatic reaction was very rapidly initiated by the addition of 10 microliters of reduced nicotinamide adenine dinucleotide phosphate (NADPH) solubilized in water. […] After centrifugation, and for each tube, 100 microliters of supernatant was removed and counted in the presence of a scintillating liquid. […]"}
{"smiles": "CC12CC=C3C(CCC4=CC(=O)CCC43CC=O)C1CCC2=O", "note": "(stereo not shown) [Example 3, ^4,9(11) -androstadiene-3,17-dione-19-carboxaldehyde]", "values": [{"measurement": "IC50", "value": 85, "unit": "nM"}]}
